# According to US9018208B2, “Heterocycles as potassium channel modulators” (Icagen Inc., priority 2007, dated 2015):
# Read-outs that look alike come from different tables or passages of the source.
# Columns and labels:
# [1] = system: SH-SY5Y M-currents (KCNQ2, KCNQ3 and KCNQ5); assay: SH-SY5Y native cell line FLIPR assay (voltage-sensitive dye DiBAC); format: cell-based, mouse neuroblastoma, rat glioma hybrid cell line
# In short: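 Response is peak DiBAC fluorescence change, normalised to the maximum from a positive control agent, sampled every 30 s over 25 min. Before compound addition, SH-SY5Y cells differentiated with PGE1 plus isomethylbutylxanthine were dye-loaded for 1 h in EBSS with […] DiBAC.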
# [2] = system: electroshock seizure, Male Wistar rats; assay: In vivo rat assay for anti-convulsant activity (rat MES, electroshock seizure); settings: for Rat MES activity: single dose screening, oral, typically 10 mg/kg, animals protected from hind limb extension
# Method: Male Wistar rats were housed 4 per cage on a regular light/dark cycle (lights on 0600-1800) for one week prior to anti-convulsant testing. The apparatus used to induce electroshock seizure was obtained from Walhquist Instrument Co., Salt Lake City, Utah. The shock level was set at 150 mA and the duration at 0.2 seconds. A drop of 1% proparacaine solution was placed in each eye of a rat, the electrodes were placed over the eyes, and the shock was administered. Latency to hind limb extension was measured to the nearest 0.1 second.
# The KCNQ opener was homogenized in either 0.5% carboxymethylcellulose in water or 0.5% methylcellulose in water) and administered orally through a steel 18-gauge rat gavage tube in a volume of 2 mL/kg of body weight. In the single dose screening assay, latency to seizure for the vehicle group and the KCNQ opener group were compared using t-test. Typically a dose of 10 mg/kg of the opener is used. However, openers can be run n a dose-response experiment where doses of 1, 3, 10 and 30 mg/Kg are used.
# In the single dose screening assay, latency to seizure for the vehicle and the 10 mg/kg groups were compared using t-test. Latencies to seizure in the dose response studies were submitted to analysis of variance and all dose groups were compared to vehicle using Dunnett's method (JMP© ver 5.1, SAS). In all cases an effect was considered significant if p≦0.05.
# [3] = FLIPR assay, SH-SY5Y native cell line, Table 2, read-out: SH-SY5Y EC50
# [4] = SH-SY5Y native cell line, FLIPR assay (Table 6), read-out: SH-SY5Y EC50
# [5] = SH-SY5Y native cell line, FLIPR assay (Table 3), read-out: SH-SY5Y EC50
# [6] = FLIPR assay, SH-SY5Y native cell line, Table 1, read-out: SH-SY5Y EC50
# [7] = FLIPR assay, SH-SY5Y native cell line, Table 5, read-out: SH-SY5Y EC50
SMILES,"EC50 [1, 3]",further results
"CC(C)(C)CC(=O)Nc1nc2ccc(Cl)nn2c1-c1ccc(C(F)(F)F)cc1 [Compound 271, N-(6-chloro-3-(4-(trifluoromethyl)phenyl)imidazo[1,2-b]pyridazin-2-yl)-3,3-dimethylbutanamide]",< 0.5 µM,Rat MES activity [2]: ++ (++ 4-6 animals protected)
"CC(C)(C(=O)Nc1nc2ccc(C(F)(F)F)nn2c1C1CCC1)C(F)(F)F [Compound 437, N-(3-cyclobutyl-6-(trifluoromethyl)imidazo[1,2-b]pyridazin-2-yl)-3,3,3-trifluoro-2,2-dimethylpropanamide]",–,"EC50 [1, 4]: 0.5 to 3 µM; Rat MES activity [2]: +++ (+++ 7-8 animals protected)"
"CC(C)(C)CC(=O)Nc1nc2ccc(F)cn2c1-c1cc(F)cc(C(F)(F)F)c1 [Compound 198, N-(6-fluoro-3-(3-fluoro-5-(trifluoromethyl)phenyl)imidazo[1,2-a]pyridin-2-yl)-3,3-dimethylbutanamide]",< 0.5 µM,Rat MES activity [2]: +++ (+++ 7-8 animals protected)
"CC(C)(C(=O)Nc1nc2ccc(C(F)(F)F)cn2c1C1CCC1)C(F)(F)F [Compound 428, N-(3-cyclobutyl-6-(trifluoromethyl)imidazo[1,2-a]pyridin-2-yl)-3,3,3-trifluoro-2,2-dimethylpropanamide]",–,"EC50 [1, 4]: < 0.5 µM; ED50 ([2]; Rattus norvegicus, po, rat MES dose-response): 1.1 mg/kg; Rat MES activity [2]: +++ (+++ 7-8 animals protected)"
"N#Cc1ccc2nc(NC(=O)Cc3ccccc3)c(-c3ccc(F)cc3)n2c1 [Compound 160, N-(6-cyano-3-(4-fluorophenyl)imidazo[1,2-a]pyridin-2-yl)-2-phenylacetamide]",0.5 to 3 µM,–
"CC(CC(=O)Nc1nc2ccccn2c1-c1nccs1)C(F)(F)F (stereo not shown) [Compound 408, 4,4,4-trifluoro-3-methyl-N-(3-(thiazol-2-yl)imidazo[1,2-a]pyridin-2-yl)butanamide]",–,"EC50 [1, 5]: 3 to 10 µM"
"O=C(Cc1ccc(F)cc1)Nc1nc2ccc(C(F)(F)F)cn2c1C1CC1 [Compound 70, N-(3-cyclopropyl-6-(trifluoromethyl)imidazo[1,2-a]pyridin-2-yl)-2-(4-fluorophenyl)acetamide]",–,"EC50 [1, 6]: < 0.5 µM"
"CC(C)(C)Cc1c(NC(=O)Cc2ccc(OC(F)(F)F)cc2)nc2ccc(C(F)(F)F)cn12 [Compound 26, N-(3-neopentyl-6-(trifluoromethyl)imidazo[1,2-a]pyridin-2-yl)-2-(4-(trifluoromethoxy)phenyl)acetamide]",–,"EC50 [1, 6]: < 0.5 µM"
"CC(C)(C)CC(=O)Nc1nc2ccc(F)cn2c1-c1ccccc1 [Compound 93, N-(6-fluoro-3-phenylimidazo[1,2-a]pyridin-2-yl)-3,3-dimethylbutanamide]",0.5 to 3 µM,–
"CC(C)(CC(=O)Nc1nc2ccc(C(F)(F)F)cn2c1C1CCCCC1)C(F)(F)F [Compound 441, N-(3-cyclohexyl-6-(trifluoromethyl)imidazo[1,2-a]pyridin-2-yl)-4,4,4-trifluoro-3,3-dimethylbutanamide]",–,"EC50 [1, 4]: < 0.5 µM"
"O=C(Nc1nc2ccccn2c1-c1cc(C(F)(F)F)ccn1)C1CC1(F)F (stereo not shown) [Compound 413, 2,2-difluoro-N-(3-(4-(trifluoromethyl)pyridin-2-yl)imidazo[1,2-a]pyridin-2-yl)cyclopropanecarboxamide]",–,"EC50 [1, 5]: 0.5 to 3 µM"
"O=C(CC(F)(F)F)Nc1nc2cc(C(F)(F)F)ccn2c1-c1ccccc1 [Compound 104, 3,3,3-trifluoro-N-(3-phenyl-7-(trifluoromethyl)imidazo[1,2-a]pyridin-2-yl)propanamide]",3 to 10 µM,–
"CC(C)C(C)C(=O)Nc1nc2ccc(F)cn2c1-c1cccc(OC(F)(F)F)c1 (stereo not shown) [Compound 278, N-(6-fluoro-3-(3-(trifluoromethoxy)phenyl)imidazo[1,2-a]pyridin-2-yl)-2,3-dimethylbutanamide]",< 0.5 µM,–
"O=C(Nc1nc2ccc(F)cn2c1-c1cccc(OC(F)(F)F)c1)C1CCC(F)(F)CC1 [Compound 327, 4,4-difluoro-N-(6-fluoro-3-(3-(trifluoromethoxy)phenyl)imidazo[1,2-a]pyridin-2-yl)cyclohexanecarboxamide]",< 0.5 µM,–
"Cc1cccc2nc(NC(=O)CC(C)(C)C)c(-c3cccc(C(F)(F)F)c3)n12 [Compound 419, 3,3-dimethyl-N-(5-methyl-3-(3-(trifluoromethyl)phenyl)imidazo[1,2-a]pyridin-2-yl)butanamide]",–,"EC50 ([1]; FLIPR assay, SH-SY5Y native cell line, Table 4, read-out: SH-SY5Y EC50): < 0.5 µM; EC50 ([1]; unit inferred, read-out: SH-SY5Y_EC50): 0.34 µM"
"O=C(Nc1cn2cc(F)ccc2n1)C(F)(F)F [Compound 10, 2,2,2-trifluoro-N-(6-fluoroimidazo[1,2-a]pyridin-2-yl)acetamide]",–,"EC50 [1, 6]: 3 to 10 µM"
"CC(CC(=O)Nc1nc2ccc(F)cn2c1-c1nccs1)C(F)(F)F (stereo not shown) [Compound 383, 4,4,4-trifluoro-N-(6-fluoro-3-(thiazol-2-yl)imidazo[1,2-a]pyridin-2-yl)-3-methylbutanamide]",–,"EC50 [1, 5]: 3 to 10 µM"
"Cc1ccc(CC(=O)Nc2nc3ccc(F)cn3c2-c2ccc(F)cc2)cc1 [Compound 143, N-(6-fluoro-3-(4-fluorophenyl)imidazo[1,2-a]pyridin-2-yl)-2-p-tolylacetamide]",< 0.5 µM,–
"O=C(Cc1ccc(F)cc1)Nc1nc2cc(C(F)(F)F)ccn2c1-c1ccccc1 [Compound 99, 2-(4-fluorophenyl)-N-(3-phenyl-7-(trifluoromethyl)imidazo[1,2-a]pyridin-2-yl)acetamide]",< 0.5 µM,–
"O=C(CC1CCCC1)Nc1nc2ccc(F)cn2c1-c1cccc(Cl)c1 [Compound 302, N-(3-(3-chlorophenyl)-6-fluoroimidazo[1,2-a]pyridin-2-yl)-2-cyclopentylacetamide]",< 0.5 µM,–
"Cc1c(NC(=O)Cc2ccc(F)cc2)nc2ccc(F)cn12 [Compound 422, N-(6-fluoro-3-methylimidazo[1,2-a]pyridin-2-yl)-2-(4-fluorophenyl)acetamide]",–,"EC50 [1, 7]: 3 to 10 µM"
"Cc1c(NC(=O)CC(C)(C)C)nc2ccc(F)cn12 [Compound 423, N-(6-fluoro-3-methylimidazo[1,2-a]pyridin-2-yl)-3,3-dimethylbutanamide]",–,"EC50 [1, 7]: 3 to 10 µM"
"CC(CC(=O)Nc1nc2ncc(Cl)cn2c1-c1cccc(Cl)c1)C(F)(F)F (stereo not shown) [Compound 321, N-(6-chloro-3-(3-chlorophenyl)imidazo[1,2-a]pyrimidin-2-yl)-4,4,4-trifluoro-3-methylbutanamide]",3 to 10 µM,–

# Further lines, with some results ahead:
"EC50 [1, 3]",SMILES,further results
< 0.5 µM,"CC(C)(C)CC(=O)Nc1nc2ccccn2c1-c1ccc(OC(F)(F)F)cc1 [Compound 225, 3,3-dimethyl-N-(3-(4-(trifluoromethoxy)phenyl)imidazo[1,2-a]pyridin-2-yl)butanamide]",Rat MES activity [2]: ++ (++ 4-6 animals protected)
< 0.5 µM,"Cc1ccc2nc(NC(=O)CC(C)C(F)(F)F)c(-c3cccc(C(F)(F)F)c3)n2n1 (stereo not shown) [Compound 316, 4,4,4-trifluoro-3-methyl-N-(6-methyl-3-(3-(trifluoromethyl)phenyl)imidazo[1,2-b]pyridazin-2-yl)butanamide]",Rat MES activity [2]: ++ (++ 4-6 animals protected)
< 0.5 µM,"CC(C)(C)CC(=O)Nc1nc2ccc(C(F)(F)F)cn2c1-c1ccc(OC(F)(F)F)cc1 [Compound 178, 3,3-dimethyl-N-(3-(4-(trifluoromethoxy)phenyl)-6-(trifluoromethyl)imidazo[1,2-a]pyridin-2-yl)butanamide]",–
0.5 to 3 µM,"CC(C)(C)CC(=O)Nc1nc2ncc(F)cn2c1-c1cccc(OC(F)(F)F)c1 [Compound 333, N-(6-fluoro-3-(3-(trifluoromethoxy)phenyl)imidazo[1,2-a]pyrimidin-2-yl)-3,3-dimethylbutanamide]",–
3 to 10 µM,"O=C(Cc1ccc(F)cc1)Nc1nc2ncccn2c1-c1cccc(OC(F)(F)F)c1 [Compound 324, 2-(4-fluorophenyl)-N-(3-(3-(trifluoromethoxy)phenyl)imidazo[1,2-a]pyrimidin-2-yl)acetamide]",–
3 to 10 µM,"O=C(COc1ccc(Cl)cc1Cl)Nc1nc2ccc(F)cn2c1-c1ccc(OC(F)(F)F)cc1 [Compound 247, 2-(2,4-dichlorophenoxy)-N-(6-fluoro-3-(4-(trifluoromethoxy)phenyl)imidazo[1,2-a]pyridin-2-yl)acetamide]",–
0.5 to 3 µM,"O=C(CC1CC1)Nc1nc2ccc(F)cn2c1-c1cccc(OC(F)(F)F)c1 [Compound 265, 2-cyclopropyl-N-(6-fluoro-3-(3-(trifluoromethoxy)phenyl)imidazo[1,2-a]pyridin-2-yl)acetamide]",–
0.5 to 3 µM,"CC(CC(=O)Nc1nc2ncc(Cl)cn2c1-c1ccc(C(F)(F)F)cc1)C(F)(F)F (stereo not shown) [Compound 318, N-(6-chloro-3-(4-(trifluoromethyl)phenyl)imidazo[1,2-a]pyrimidin-2-yl)-4,4,4-trifluoro-3-methylbutanamide]",–
3 to 10 µM,"CC(C)(C)CC(=O)Nc1nc2ncc(Cl)cn2c1-c1ccc(C(F)(F)F)cc1 [Compound 322, N-(6-chloro-3-(4-(trifluoromethyl)phenyl)imidazo[1,2-a]pyrimidin-2-yl)-3,3-dimethylbutanamide]",–
